Experimental data reported in patent US7094423B1, “Methods for preparation of lipid-encapsulated therapeutic agents” (INEX Pharmaceuticals Corp., priority 1999, dated 2006).
Several values for one entry are separate records, joined by “and”; a condition that tells them apart may be missing. Identical values can stand only once.

Legend:
Format in all cases: physicochemical
[1] = OliGreen assay: percentage of oligo that is encapsulated; details: for Encap Oligo %: Ex. 2 procedure
Description: The Oligreen Assay was used to quantify the amount of oligonucleotide loaded into the vesicles. A fluorescent dye binding assay for quantifying single stranded oligonucleotide in aqueous solutions was established using a Biolumin™ 960 fluorescent plate reader (Molecular Dynamics, Sunnyvale, Calif., USA). Briefly, aliquots of encapsulated oligonucleotide were diluted in HEPES buffered saline (HBS; 20 mM HEPES, 145 mM NaCl, pH 7.5). A 10 μL aliquot of the diluted sample was added to 100 μL of a 1:200 dilution of Oligreen™ reagent, both with and without 0.1% of Triton X-100 detergent. An oligo standard curve was prepared with and without 0.1% Triton X-100 for quantification of encapsulated oligo. Fluorescence of the Oligreen™-antisense complex was measured using excitation and emission wavelengths of 485 nm and 520 nm, respectively. Surface associated antisense was determined by comparing the fluorescence measurements in the absence and presence of detergent.
(§1) [formula] The percentage of oligo that is encapsulated (i.e., incorporated in bilayers or entrapped in the interior of the lipid particle) was determined with the OliGreen assay described above.

[2] = Dynamic light scattering: vesicle size; details: for Size [nm]: DSPC/Chol/DODAP/PEG-CerC14 20/45/25/10 mol %, initial oligonucleotide-to-lipid 0.23 mg/mg, number-averaged
Description: Dynamic light scattering. Sizes were determined by dynamic light scattering using a NICOMP 370 particle sizer (Nicomp Particle Sizing Inc., Santa Barbara, Calif.). Throughout the application, number-averaged sizes are presented, which were obtained by a cumulant fit from the experimental correlation functions. The polydispersity is expressed as the half-width at half-height of a monomodal Gaussian size distribution. The viscosity of the ethanol/citrate buffer was determined using an Ubelohde-type viscometer (Cannon 50). […] The zeta potential was determined by electrophoretic light scattering using a Coulter light scattering instrument (DELSA, Coulter Electronics Inc., FL).

[3] = Final drug/lipid ratio and encapsulation efficiency (E.E.)
Description: The procedure of Example 2 was repeated with changes to various parameters to determine which might be critical to the preparation of fully lipid-encapsulated therapeutic agent particles in accordance with the invention. In these experiments, the total oligonucleotide recovery (yield), the total lipid recovery (yield) and the encapsulation efficiency were considered as indications of the quality of the product and the process. Total oligonucleotide recovery was calculated using the formula:
[formula] Encapsulation Efficiency (E.E.) was calculated using the formula:
as §1

[4] = Trapping efficiency of oligonucleotide in liposomes after anion exchange chromatography
Description: Entrapment procedure. […] At pH 7.5 DODAP becomes charge-neutral and oligonucleotides bound to the external membrane surface are released from their association with the cationic lipid. Unencapsulated oligonucleotides were subsequently removed by anion exchange chromatography on DEAE-sepharose CL-6B columns equilibrated in HBS pH 7.5. When octylglucoside was used in place of ethanol the detergent was added to liposomes (1:1 v/v) to final concentrations ranging from 30–40 mM. All the subsequent steps were performed as described above except for the initial dialysis step against pH 4 citrate buffer, which was extended to 5 hrs. In the following examples, if not otherwise mentioned, DSPC/Chol/PEG-CerC14/DODAP liposomes (20:45:10:25 mol %), c-myc (Seq. ID No. 1), 40% (v/v) ethanol, 300 mM citrate buffer and incubation at 40° C. were used.
Determination of trapping efficiencies: Trapping efficiencies were determined after removal of external oligonucleotides by anion exchange chromatography. Oligonucleotide concentrations were determined by UV-spectroscopy on a Shimadzu UV160U spectrophotometer. The absorbance at 260 nm was measured after solubilization of the samples in chloroform/methanol at a volume ratio of 1:2.1:1 chloroform/methanol/aqueous phase (sample/HBS). If the solution was not completely clear after mixing an additional 50–100 μl of methanol was added. Alternatively, absorbance was read after solubilization of the samples in 100 mM octylglucoside. The antisense concentrations were calculated according to: c [μg/μl]=A260*1 OD260 unit [μg/μl]*dilution factor [μg/μl], where the dilution factor is given by the total assay volume […] divided by the sample volume [μl]. OD260 units were calculated from pairwise extinction coefficients for individual deoxy-nucleotides, which take into account nearest neighbor interactions. 1OD corresponds to 30.97 μg/ml c-myc (Seq. ID. No 1), 33.37 μg/ml h-ICAM-1 (Seq. ID No. 2) and 34 μg/ml EGFR (Seq. ID No. 3). Lipid concentrations were determined by the inorganic phosphorus assay after separation of the lipids from the oligonucleotides by a Bligh and Dyer extraction (Bligh and Dyer, 1959). Briefly, to 250 μl of aqueous phase (sample/HBS) 525 μl methanol and 250 μl chloroform were added to form a clear single phase (aqueous phase/methanol/chlorofrom 1:2.1:1 vol). If the solution was not clear a small amount of methanol was added. Subsequently, 250 μl HBS and an equal volume of chloroform were added. The samples were mixed and centrifuged for 5–10 min at 3000 rpm. […] The chloroform phase was assayed for phospholipid content according to the method of Fiske and Subbarrow (1925). If not otherwise mentioned, trapping efficiencies were expressed as oligonucleotide-to-lipid weight ratios [w/w].

[5] = citrate buffer 50 mM, initial drug/lipid 0.1
[6] = citrate buffer 100 mM, initial drug/lipid 0.1
[7] = citrate buffer 200 mM, initial drug/lipid 0.1
[8] = citrate buffer 300 mM, initial drug/lipid 0.1
[9] = incubation temp RT(20–22) °C, 1 hour
[10] = initial EtOH 33%, initial drug/lipid 0.2
[11] = initial EtOH 36%, initial drug/lipid 0.1
[12] = initial EtOH 40%, initial drug/lipid 0.2
[13] = initial EtOH 43%, initial drug/lipid 0.1
[14] = initial EtOH 43%, initial drug/lipid 0.2
[15] = initial EtOH 45%, initial drug/lipid 0.1
[16] = oligo stock 10 mg/ml, initial drug/lipid 0.1
[17] = oligo stock 20 mg/ml, initial drug/lipid 0.1
[18] = oligo stock 30 mg/ml, initial drug/lipid 0.1
[19] = oligo stock 40–50 mg/ml, initial drug/lipid 0.1
[20] = 2.5 mol % PEG-CerC14, 40% ethanol, initial oligonucleotide-to-lipid 0.037 mol/mol, listed as c-myc
[21] = 5 mol % PEG-CerC14, 40% ethanol, initial oligonucleotide-to-lipid 0.037 mol/mol
[22] = 10 mol % PEG-CerC14, 40% ethanol, initial oligonucleotide-to-lipid 0.037 mol/mol, listed as c-myc
[23] = DSPC/Chol/DODAP liposomes (no modified lipid), 0% EtOH [v/v], molar ODN/lipid 0.035, pH 4
[24] = DSPC/Chol/DODAP liposomes (no modified lipid), 20% EtOH [v/v], molar ODN/lipid 0.035, pH 4
[25] = DSPC/Chol/DODAP liposomes (no modified lipid), 30% EtOH [v/v], molar ODN/lipid 0.035, pH 4
[26] = Ex. 2 procedure, initial drug/lipid ratio 0.1
[27] = Ex. 2 procedure, initial drug/lipid ratio 0.2

## 5′-TAACGTTGAGGGGCAT-3′ (listed as DNA, chemistry not given here) [INX-6295]
[1]; initial drug/lipid ratio 0.1
  Encap Oligo %: ≧90%
[1]; initial drug/lipid ratio 0.2
  Encap Oligo %: ≧80%
[1]; [5]
  Encapsulated Oligo %: 94%
[1]; [6]
  Encapsulated Oligo %: 90%
[1]; [7]
  Encapsulated Oligo %: 91%
[1]; [8]
  Encapsulated Oligo %: 92%
[1]; incubation temp 40 °C, 1 hour
  Encaps Oligo %: 91%
[1]; incubation temp 60 °C, 1 hour
  Encaps Oligo %: 83%
[1]; [9]
  Encaps Oligo %: 90%
[1]; incubation time 0.5 hr at 40° C.
  Encapsulated Oligo %: 92%
[1]; incubation time 1 hr at 40° C.
  Encapsulated Oligo %: 94%
[1]; incubation time 2 hr at 40° C.
  Encapsulated Oligo %: 95%
[1]; [10]
  Encaps Oligo %: 88%
[1]; [11]
  Encaps Oligo %: 85–89%
[1]; [12]
  Encaps Oligo %: 82%
[1]; [13]
  Encaps Oligo %: 84–89%
[1]; [14]
  Encaps Oligo %: 62%
[1]; [15]
  Encaps Oligo %: 90–92%
[1]; [16]
  Encaps Oligo %: 90%
[1]; [17]
  Encaps Oligo %: 88%
[1]; [18]
  Encaps Oligo %: 90%
[1]; [19]
  Encaps Oligo %: 88–94%
[2]; 2.5 mol % PEG-CerC14, 25% ethanol, initial oligonucleotide-to-lipid 0.037 mol/mol
  Average size [nm]: 125 ± 35 (108 ± 26) nm
[2]; [20]
  Average size [nm]: 131±40 nm and 131 ± 40 (108 ± 26) nm
[2]; [21]
  Average size [nm]: 126 ± 36 (107 ± 22) nm
[2]; 10 mol % PEG-CerC14, 25% ethanol, initial oligonucleotide-to-lipid 0.037 mol/mol
  Average size [nm]: 92 ± 18 (93 ± 18) nm
[2]; [22]
  Average size [nm]: 100±26 nm and 100 ± 26 (93 ± 18) nm
[2]; [23]
  Average size [nm]: 148 ± 56 nm
[2]; [24]
  Average size [nm]: 226 ± 104 nm
[2]; [25]
  Average size [nm]: 470 ± 244 nm
[2]; [26]
  Vesicle Size (nm): 106 nm
[2]; [27]
  Vesicle Size (nm): 119 nm
[2]; OGP 30 mM in place of ethanol
  Size [nm]: 65 ± 12 nm
[2]; OGP 35 mM in place of ethanol
  Size [nm]: 100 ± 22 nm
[2]; OGP 40 mM in place of ethanol
  Size [nm]: 145 ± 38 nm
[2]; [5]
  Vesicle Size (nm): 80 nm
[2]; [6]
  Vesicle Size (nm): 90 nm
[2]; [7]
  Vesicle Size (nm): 93 nm
[2]; [8]
  Vesicle Size (nm): 106 nm
[2]; incubation temp 40 °C, 1 hour
  Vesicle Size (nm): 109 nm
[2]; incubation temp 60 °C, 1 hour
  Vesicle Size (nm): 140 nm
[2]; [9]
  Vesicle Size (nm): 114 nm
[2]; [10]
  Vesicle Size (nm): 115 nm
[2]; [11]
  Vesicle Size (nm): 110 nm
[2]; [12]
  Vesicle Size (nm): 114 nm
[2]; [13]
  Vesicle Size (nm): 116 nm
[2]; [14]
  Vesicle Size (nm): 105 nm
[2]; [15]
  Vesicle Size (nm): 108 nm
[2]; initial ODN-to-lipid weight ratio of 0.2
  size and polydispersity of liposomes: 110±30 nm
[2]; [16]
  Vesicle Size (nm): 106 nm
[2]; [17]
  Vesicle Size (nm): 112 nm
[2]; [18]
  Vesicle Size (nm): 110 nm
[2]; [19]
  Vesicle Size (nm): 106 nm
[3]; [26]
  E.E. %: 100%
  Final Drug/Lipid Ratio: 0.1
[3]; [27]
  Final Drug/Lipid Ratio: 0.17–0.2
[3]; [10]
  E.E. %: 60%
  Final Drug/Lipid: 0.12
[3]; [12]
  E.E. %: 75%
  Final Drug/Lipid: 0.15
[3]; [14]
  E.E. %: 95%
  Final Drug/Lipid: 0.19
[4]; [20]
  % encapsulation: 45% and 45.7%
[4]; [21]
  % encapsulation: 50.9%
[4]; 10 mol % PEG-CerC14, 25% ethanol, initial oligonucleotide-to-lipid 0.037 mol/mol, listed as c-myc
  % encapsulation: 5%
[4]; [22]
  % encapsulation: 60% and 56.5%
[4]; 10 mol % PEG-CerC14 liposomes, initial antisense-to-lipid weight ratio 0.29
  final antisense-to-lipid ratio: 0.16
[4]; [23]
  % encapsulation: 4.4%
[4]; [24]
  % encapsulation: 20.5%
[4]; [25]
  % encapsulation: 32.5%
[4]; OGP 30 mM in place of ethanol, DSPC/Chol/DODAP/PEG-CerC14 20/45/25/10 mol %, initial oligonucleotide-to-lipid 0.23 mg/mg
  % encapsulation: 51%
[4]; OGP 35 mM in place of ethanol, DSPC/Chol/DODAP/PEG-CerC14 20/45/25/10 mol %, initial oligonucleotide-to-lipid 0.23 mg/mg
  % encapsulation: 57%
[4]; OGP 40 mM in place of ethanol, DSPC/Chol/DODAP/PEG-CerC14 20/45/25/10 mol %, initial oligonucleotide-to-lipid 0.23 mg/mg
  % encapsulation: 55%
[4]; at maximum entrapment
  oligonucleotide molecules per 100 nm liposome: approximately 2250
